Laboratory results as given in US20040157892A1, “Pesticidal fluoroethyl pyrazoles” (CROMPTON CO./Cie, priority 2003, published 2004).

What was measured:
Type in all cases: in vivo
[1] = tested on: Tetranychus urticae Motiles; assay: mite contact (MIC) bioassay; conditions: 300 ppm, contact on bean leaf, evaluated five days later
Protocol: (§1) For each compound tested, a stock solution of 3000 ppm was prepared by diluting 0.008 gram of each compound into 2.67 mL of acetone and further diluting with water to make the final concentrations used for the various screens, as follows:
In the mite contact (MIC) bioassay, approximately 20 motile mites confined on a cowpea leaf were sprayed with a 300 ppm concentration and evaluated five days later.
(§2) Since only a single replicate was used for the DBM and SCR screens, confirmation of mortality in an additional evaluation with three larvae at the 100 ppm rate was required to substantiate the initial observation of activity.

[2] = tested on: Tetranychus urticae Eggs; assay: mite ovicide (MIOV) bioassay; conditions: 100 ppm, contact on bean leaf, egg hatch evaluated nine days later
Protocol: as §1
In the mite ovicide (MIOV) bioassay, approximately 30 mite eggs on cowpea foliage were sprayed with a 100 ppm solution and egg hatch was evaluated nine days later.
as §2

[3] = tested on: Plutella xylostella Larva; assay: diamondback moth (DBM) bioassay; conditions: 100 ppm, residual on diet, evaluated five days later, confirmed with three larvae
Protocol: as §1
In the diamondback moth (DBM) bioassay, a single larva was exposed to a diet with a surface that had been coated with a 100 ppm solution, and evaluated five days later.
as §2

| Compound | Pesticidal Activity MIC (control) [1] [%] | Pesticidal Activity MIOV (control) [2] [%] | Pesticidal Activity DBM (control) [3] [%] |
| --- | --- | --- | --- |
| FCCn1cc(-c2ccc(Cl)s2)cn1 [Compound 6, 1-(2-fluoroethyl)-4-(5-chloro-2-thienyl)pyrazole] | 100 | 100 | 100 |
| CCOC(=O)c1sc(-c2cnn(CCF)c2)nc1C(F)(F)F [Compound 7, Ethyl 2-[1-(2-fluoroethyl)-4-pyrazolyl]-4-trifluoromethyl-5-thiazolecarboxylate] | 100 | 100 |  |
| FCCn1cc(-c2cccc(Cl)n2)cn1 [Compound 8, 1-(2-fluoroethyl)-4-(6-chloro-2-pyridyl)pyrazole] | 100 | 100 |  |
| FCCn1cc(C#Cc2ccc(Cl)cc2)cn1 [Compound 9, 1-(2-fluoroethyl)-4-[(4-chlorophenyl)ethynyl]pyrazole] | 100 | 100 |  |
| FCCn1cc(C#Cc2cccnc2)cn1 [Compound 10] | 100 | 100 |  |
| Isopropyl 1-(2-fluoroethyl)-3(or 5)-nitro-1H-pyrazole-5 (or 3)-carboxylate [Compound 1] | 100 |  | 100 |
